Assay results taken from patent US20230233695A1, “MITHRAMYCIN A NANOPARTICLES FOR CANCER TREATMENT” (priority 2021, published 2023).
Like-named read-outs stand apart in the source and are kept apart here.

Columns and labels:
[1] = test system: A673; assay: XTT cell viability assay, A673; assay type: cell-based; details: Homo sapiens, A673, 72 h, read-out: Viability IC50
Description: (§1) Cell viability assays. For viability assays, four EWS:Fli1 fusion tumor cell lines (RD-ES, SK-ES-1, A673, and TC-71), one human embryonic kidney cell line (293.T), one ES tumor cell line with ERG fusion (CHLA-25), one fetal kidney cell line (HEK293.T), one hepatoblastoma cell line (HepG2), one chronic myeloid leukemia (MEG-01), and one acute monocytic leukemia (THP-1) cell line were plated at 5000 cells/well in 100 μL growth media in 96-well plates. After overnight incubation, 50 μL of growth media containing mithramycin A (MithA) (Cayman Chemical, Ann Arbor, Mi. Item Number 11434) or boronic acid-conjugated nano-MithA (MANP) (0.12 nM to 500 nM, final) or dimethyl sulfoxide (DMSO, 0.01% v/v) vehicle was added to the wells, and cell viability assays were performed 72 hours later. The cells were incubated with the activated-XTT solution (mixture of 2% final concentration of activation reagent with the XTT reagent) from ATCC (Catalog Number 30-1011K, XTT Cell Proliferation Assay Kit) for 3 hours prior to recording absorbance. The cell viability was determined by measuring the absorbance wavelength at 475 nm and reference wavelength at 650 nm on an Infinite M200 plate reader (Tecan Group, Ltd. Mannedorf, Switzerland). […]

[2] = test system: HepG2; assay: XTT cell viability assay, HepG2; assay type: cell-based, human
Description: as §1

[3] = test system: NR0B1; assay: Western blotting, NR0B1 protein expression; assay type: cell-based; details: 10 nM, 24 hours; compared with saline control, p<0.0471
Description: (§2) Western Blotting. Expression Western blotting was performed to assess the expression of NR0B1 (EWS:Fli1 target gene) and Rad 51 (DNA homologous recombination repair HRR) at protein level as provisory described in Lin et al 2021. Briefly, cells were grown to ˜70% confluence and exposed to 10 nM of MithA/MANP (final concentration) or DMSO, (0.01% v/v) vehicle and blank polymer for 24 hours. Lysates were collected in cold RIPA lysis buffer supplemented with 1×HALT protease/phosphatase inhibitor cocktail (Thermo Scientific) and clarified by centrifugation. Protein concentration of the supernatant was determined by BCA assay (Thermo Scientific), and then diluted in 4× loading buffer (Licor Inc., Lincoln, Nebr.) containing 1× NuPAGE reducing agent (Life Technologies). Prior to electrophoresis, samples were denatured by incubating at 70° C. for 10 minutes. Samples were then resolved (25 μg/lane) on 4-20% gradient SDS-PAGE gels and transferred to low-fluorescence PVDF membranes (Bio-Rad Inc., Hercules Calif.). Transfer efficiency and equivalence of total protein load was assessed using Revert 700 Total Protein Stain kits (Licor Inc). Membranes were then washed, blocked in Odyssey Blocking Buffer (PBS) (Licor Inc), and incubated with primary antibodies (Table S4.3 above) overnight at 4° C. diluted in blocking buffer.

[4] = test system: Rad51; assay: Western blotting, Rad51 protein expression; assay type: cell-based; details: 10 nM, 24 hours
Description: as §2

[5] = test system: NR0B1; assay: RT-qPCR, NR0B1 mRNA expression; assay type: cell-based; details: 10 nM, 3 cell lines tested
Description: (§3) Assessment of mRNA expression by RT-qPCR. Total RNA was extracted from EWS:Fli1^+ cell cultures (TC-71, A673, and RD-ES) exposed to 10 nM of MithA/MANP (final concentration) or DMSO, (0.01% v/v) vehicle and blank polymer for 24 hours by the RNeasy technique with RNeasy columns with on-column DNAse I digestion (Qiagen, Valencia, Calif.) according to the manufacturer's instructions. The concentration and purity of the extracts were determined by UV absorbance at 230/260/280/320 nm wavelengths using a Tecan Infinite M200 spectrophotometer. Template cDNA was synthesized from […] of RNA extract by reverse-transcription using the Quantitect RT kit (Qiagen). Oligonucleotide primer sequences and more detailed information described in Supplemental Table S4). RT-PCR was performed using Quantitect SYBR-green qPCR reagents in a Mastercycler ep Realplex2 instrument (Eppendorf AG, Hamburg, Germany). […] Relative quantification of mRNA expression between MithA/MANP or vehicle/blank polymer treated cells were semi-quantitatively calculated by comparing the average threshold cycle (Ct) for the treated samples to the average Ct for untreated samples (Vehicle or blank polymer. Amplification efficiency was determined for each primer set, and the Pfaffl equation to determine relative fold change in gene expression. Beta-actin was used as the housekeeping gene for normalization.

[6] = test system: Rad51; assay: RT-qPCR, Rad51 mRNA expression; assay type: cell-based; details: 10 nM, 3 cell lines tested
Description: as §3

[7] = test system: Female C57BL/6J mice; assay: In vivo toxicity of MithA and MANP: body weight, death, morbidity
Description: In vivo toxicity of MithA and MANP. Cohorts of n=6-7 C57BL/6J females, 8-10 wko were randomized to receive either intravenous or intraperitoneal administration of saline control vehicle, blank polymer, MithA, or MANP as described in TABLES 2A and 2B. Body weight loss exceeding 20%, death, morbidity, changes in behavior, and any other sign of local or systemic toxicity were recorded.

[8] = test system: TC-71 (EWS:Fli1+) xenograft tumor; details: 1 mg/kg, five i.v. injections on alternating days
Description: In vivo anti-tumor efficacy. […] On alternating days following inoculation, body weight was recorded, and tumor volume was measured using digital calipers. As each mouse achieved a measurable tumor volume of 200 mm^3, they were randomly allocated saline control vehicle, blank polymer (nano-formulation without MithA conjugation), 1 mg/kg MithA, or 1 mg/kg MANP (1 mg/kg eq. MithA) treatment groups until n=10/group was reached. Mice received 5 intravenous injections of the designated treatment via tail vein, given on alternating day schedule (e.g. M-W-F-Su-Tu). After treatment, tumors were allowed to grow to 1.5 cm^3, at which point the mice were euthanized by CO2 inhalation (FIG. 4.1.). The tumor volume was calculated by the equation: Tumor volume=(L×W^2)/2, in which L and W are the longest and shortest in tumor diameters (mm), respectively. Survival duration was calculated as the number of days for tumor volume to increase from 200 to 1500 mm^3.
Statistical analysis. Microsoft Excel was used to organize data and obtain descriptive statistics (mean and standard deviation). […] For Western blot, tumor-bearing xenograft, and toxicity studies, one-way ANOVA with Bonferroni correction and multiple comparisons were performed using Prism 9. […] For xenograft studies, survival data were used to construct Kaplan-Meier plots and statistical significance of differences between treatment groups (n=10-11/group) was determined by the log-rank test. Differences were accepted as statistically significant when the p-value was ≤0.05.

[9] = human, in vivo; cited from earlier work
[10] = single i.v. 4 mg/kg, within 48 hours

SMILES: CO[C@H](C(=O)[C@@H](O)[C@@H](C)O)[C@@H]1Cc2cc3cc(O[C@H]4C[C@@H](O[C@H]5C[C@@H](O)[C@H](O)[C@@H](C)O5)[C@H](O)[C@@H](C)O4)c(C)c(O)c3c(O)c2C(=O)[C@H]1O[C@H]1C[C@@H](O[C@H]2C[C@@H](O[C@H]3C[C@](C)(O)[C@H](O)[C@@H](C)O3)[C@@H](O)[C@@H](C)O2)[C@H](O)[C@@H](C)O1 [MithA, (2S,3S)-2-[(2S,4R,5R,6R)-4-[(2S,4R,5S,6R)-4-[(2S,4S,5R,6R)-4,5-dihydroxy-4,6-dimethyloxan-2-yl]oxy-5-hydroxy-6-methyloxan-2-yl]oxy-5-hydroxy-6-methyloxan-2-yl]oxy-3-[(1 S,3S,4R)-3,4-dihydroxy-1-methoxy-2-oxopentyl]-6-[(2S,4R,5R,6R)-4-[(2S,4R,5S,6R)-4,5-dihydroxy-6-methyloxan-2-yl]oxy-5-hydroxy-6-methyloxan-2-yl]oxy-8,9-dihydroxy-7-methyl-3,4-dihydro-2H-anthracen-1-one]
- IC50 [1]: 12.4 nM
- IC50 ([2]; Homo sapiens, HepG2, 72 h, read-out: Viability IC50, HepG2, hepatoblastoma): 24.9 nM
- IC50 ([2]; read-out: Viability IC50, HepG2, hepatoblastoma, 72 hours): 24.9 nM
- NR0B1 protein expression [3]: significantly suppressed
- Rad51 protein expression [4]: Down-regulated
- NR0B1 mRNA expression [5]: unable to detect significant inhibition
- Rad51 mRNA expression [6]: unable to detect significant inhibition
- toxicity by serum chemistry or hematology studies ([7]; 5 consecutive days i.p. 1 mg/kg): no significant toxicity
- death ([7]; 5 consecutive days i.p. 4 mg/kg): One mouse died
- body weight ([7]; 5 consecutive days i.p. 4 mg/kg (p=0.0016)): progressive and significant body weight loss
- morbidity ([7]; 5 consecutive days i.p. 4 mg/kg, day of harvest (day 6)): one mouse found to be moribund
- outward signs of morbidity or toxicity ([7]; five i.v. injections on alternating days, 1 mg/kg or 2 mg/kg): no obvious outward signs of morbidity or toxicity
- body weight ([7]; single i.p. injection, 1 mg/kg and 4 mg/kg, vs saline vehicle): no significant weight loss
- toxicity by serum chemistry or hematology assays ([7]; single i.p. injection, 1 or 2 mg/kg): did not cause any toxicity
- body weight ([7]; single i.v. 4 mg/kg, in comparison to equivalent dose of MANP (p=0.048)): significant decrease
- death rate [7, 10]: 75%
- mice that died [7, 10]: 6/8
- body weight in tumor-bearing mice [8]: no loss of body weight was observed
- survival, range [8]: 12 to 35 days
- median survival ([8]; days for tumor to grow from 200 to 1500 mm^3): 20 days
- ALT and AST elevations, increase in geometric mean [9]: greater than 13 fold
- treated patients who developed hepatotoxicity [9]: 10/12
